What was measured:
[1] = target: T1, human TLR7 (Homo sapiens, UniProt Q9NYK1); assay: TLR7 cellular reporter assay (HEK293, NFκB-luc); assay type: cell-based; details: HEK293 cells transfected with CMV-TLR7 and NFκB-luc, 6 hours incubation; lowest effective concentration
T1 construct: expressed in transfected cells; host or cells: HEK293 cells, transient transfection with CMV-TLR7 plasmid and NFκB-luc plasmid
T1 sequence (Q9NYK1 27-1049): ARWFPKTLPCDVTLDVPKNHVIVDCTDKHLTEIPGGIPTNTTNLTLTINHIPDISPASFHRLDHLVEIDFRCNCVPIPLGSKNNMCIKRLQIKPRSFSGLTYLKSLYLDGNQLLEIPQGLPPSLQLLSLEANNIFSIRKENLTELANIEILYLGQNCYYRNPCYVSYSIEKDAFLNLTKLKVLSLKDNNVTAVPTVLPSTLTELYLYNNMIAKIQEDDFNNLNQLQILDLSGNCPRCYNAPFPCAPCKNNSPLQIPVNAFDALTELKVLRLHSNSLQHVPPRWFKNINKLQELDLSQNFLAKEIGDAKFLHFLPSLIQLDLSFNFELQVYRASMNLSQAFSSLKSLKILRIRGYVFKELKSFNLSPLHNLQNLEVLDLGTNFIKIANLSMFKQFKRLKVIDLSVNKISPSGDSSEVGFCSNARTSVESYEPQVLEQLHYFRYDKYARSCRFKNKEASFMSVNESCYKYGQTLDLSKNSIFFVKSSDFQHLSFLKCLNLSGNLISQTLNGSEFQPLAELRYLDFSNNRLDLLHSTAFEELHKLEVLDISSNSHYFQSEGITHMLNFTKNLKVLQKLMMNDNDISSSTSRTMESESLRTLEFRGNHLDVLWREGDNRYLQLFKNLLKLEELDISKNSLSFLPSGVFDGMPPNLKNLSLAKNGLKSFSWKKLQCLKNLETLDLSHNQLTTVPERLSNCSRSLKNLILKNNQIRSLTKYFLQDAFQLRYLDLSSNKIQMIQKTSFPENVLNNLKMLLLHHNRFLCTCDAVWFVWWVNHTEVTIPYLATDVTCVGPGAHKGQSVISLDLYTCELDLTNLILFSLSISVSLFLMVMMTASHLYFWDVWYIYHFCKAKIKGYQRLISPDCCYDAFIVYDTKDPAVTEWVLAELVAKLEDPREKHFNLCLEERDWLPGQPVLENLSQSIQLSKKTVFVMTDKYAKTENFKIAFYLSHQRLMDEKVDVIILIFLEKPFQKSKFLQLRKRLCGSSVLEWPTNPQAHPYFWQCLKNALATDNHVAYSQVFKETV
Procedure, shortened: (§1)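 HEK293 cells transiently transfected with receptor expression vector plus NFκB-luciferase reporter, exposed to compound (added in 4% DMSO) for 6 hours at 37° C, 5% CO2. Luciferase activity measured by luminescence; dose-response curves from quadruplicate measurements.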

[2] = target: T2, human TLR8 (Homo sapiens, UniProt Q9NR97); assay: TLR8 cellular reporter assay (HEK293, NFκB-luc); assay type: cell-based; details: HEK293 cells transfected with CMV-TLR8 and NFκB-luc, 6 hours incubation; lowest effective concentration
T2 construct: expressed in transfected cells; host or cells: HEK293 cells, transient transfection with TLR8 plasmid and NFκB-luc plasmid
T2 sequence (Q9NR97 27-1041): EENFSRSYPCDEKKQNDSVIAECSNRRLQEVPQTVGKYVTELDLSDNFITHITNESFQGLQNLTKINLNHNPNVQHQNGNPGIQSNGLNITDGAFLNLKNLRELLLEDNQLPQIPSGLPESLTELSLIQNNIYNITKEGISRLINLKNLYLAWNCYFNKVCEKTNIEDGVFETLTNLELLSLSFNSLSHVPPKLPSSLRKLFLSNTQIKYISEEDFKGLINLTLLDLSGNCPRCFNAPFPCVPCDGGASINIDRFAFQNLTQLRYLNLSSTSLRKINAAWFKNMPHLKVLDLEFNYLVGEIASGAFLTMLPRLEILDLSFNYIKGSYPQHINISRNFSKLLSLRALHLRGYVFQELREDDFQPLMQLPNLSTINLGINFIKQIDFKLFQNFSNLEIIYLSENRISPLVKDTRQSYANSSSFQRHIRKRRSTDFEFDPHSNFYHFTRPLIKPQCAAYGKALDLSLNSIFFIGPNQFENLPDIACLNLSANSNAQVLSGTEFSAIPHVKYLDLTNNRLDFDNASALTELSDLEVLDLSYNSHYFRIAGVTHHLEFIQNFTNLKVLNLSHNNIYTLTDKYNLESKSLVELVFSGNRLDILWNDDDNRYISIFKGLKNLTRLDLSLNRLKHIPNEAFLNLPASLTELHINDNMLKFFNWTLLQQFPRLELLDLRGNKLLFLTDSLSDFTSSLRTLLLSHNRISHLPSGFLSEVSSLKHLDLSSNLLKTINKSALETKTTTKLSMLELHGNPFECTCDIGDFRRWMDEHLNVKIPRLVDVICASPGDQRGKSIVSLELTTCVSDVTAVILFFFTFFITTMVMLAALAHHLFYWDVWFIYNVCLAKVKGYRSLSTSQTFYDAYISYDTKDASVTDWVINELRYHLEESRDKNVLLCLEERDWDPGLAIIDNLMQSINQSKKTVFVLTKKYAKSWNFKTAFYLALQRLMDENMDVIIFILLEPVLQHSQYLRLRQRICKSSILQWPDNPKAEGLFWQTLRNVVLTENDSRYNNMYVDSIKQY
Procedure, shortened: as §1

[3] = tested on: interferon-stimulated responsive elements (ISRE); assay: Activation of ISRE promoter elements by conditioned media from PBMC (HEK-ISREluc); assay type: cell-based, human; details: Homo sapiens; conditioned media from PBMC transferred to HEK-ISREluc cells, 24 hours; lowest effective concentration; read-out: PBMC LEC
Procedure, shortened: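 Human PBMCs (≥2 donors, RPMI + 10% human AB serum, 2×10^5 cells/well) incubated overnight with compound; supernatant transferred to HEK293 cells stably carrying pISRE-Luc for 24 h, then luciferase read. LEC = compound concentration on PBMCs giving luciferase signal at least two-fold above assay SD; recombinant IFN-α-2a standard.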

Structure (SMILES)	TLR7 LEC [1] [µM]	TLR8 LEC [2] [µM]	minimal effective concentration [3] [µM]
COc1ccnc(Cn2ccc3nc(N)nc(NCc4cc(C)on4)c32)c1OC [Compound 168]	0.09	>25	0.011
COc1c(C)cnc(Cn2ccc3nc(N)nc(NCc4cc(C)on4)c32)c1C [Compound 169]	0.04	>25	0.011
Cc1cc(CNc2nc(N)nc3ccn(Cc4cccc(C(N)=O)n4)c23)no1 [Compound 172]	1.40	>25	0.017
Cc1nc(CNc2nc(N)nc3ccn(Cc4ccccn4)c23)no1 [Compound 173]	0.53	>25	0.066
Cc1ccc(Cn2ccc3nc(N)nc(NCc4cc(C)on4)c32)nc1 [Compound 175]	0.02	>25	0.009
Cc1cc(CNc2nc(N)nc3ccn(Cc4cn(-c5ccccc5)nn4)c23)no1 [Compound 176]	0.04	>25	0.009
Cc1nc(CNc2nc(N)nc3ccn(Cc4ccccn4)c23)c(C)o1 [Compound 177]	8.67	>25	3.93
Cc1cc(CNc2nc(N)nc3ccn(Cc4cccc(F)n4)c23)no1 [Compound 178]	0.15	>25	0.014
COc1ncccc1Cn1ccc2nc(N)nc(NCc3cc(C)on3)c21 [Compound 179]	0.02	>25	0.003
COc1cc(OC)nc(Cn2ccc3nc(N)nc(NCc4cc(C)on4)c32)n1 [Compound 180]	0.01	>25	0.004
Cc1cc(CNc2nc(N)nc3ccn(Cc4cc(C)on4)c23)no1 [Compound 181]	0.06	20.2	0.015
Cc1cc(CNc2nc(N)nc3ccn(Cc4cc5ccccc5cn4)c23)no1 [Compound 182]	0.05	>25	0.018
Cc1cc(CNc2nc(N)nc3ccn(Cc4ccc5cccnc5n4)c23)no1 [Compound 183]	0.59	>25	0.009
Cc1cc(CNc2nc(N)nc3ccn(Cc4ncccc4C)c23)no1 [Compound 185]	0.07	>25	0.018
Cc1cc(CNc2nc(N)nc3ccn(Cc4ncccn4)c23)no1 [Compound 186]	0.14	>25	0.035
Cc1cc(CNc2nc(N)nc3ccn(Cc4ccccn4)c23)nn1C [Compound 187]	4.78	>25	0.52
Cn1cnc(CNc2nc(N)nc3ccn(Cc4ccccn4)c23)c1 [Compound 188]	7.62	>25	0.047

Structure (SMILES)	TLR7 LEC [1] [µM]	TLR8 LEC [2] [µM]	minimal effective concentration [3] [µM]
Cc1cc(CNc2nc(N)nc3ccn(Cc4csc(C)n4)c23)no1 [Compound 192]	0.07	>25	0.03
Cn1cc(CNc2nc(N)nc3ccn(Cc4ccccn4)c23)nn1 [Compound 193]	11.3	>25	0.447
COc1cccnc1Cn1ccc2nc(N)nc(NCc3noc(C)n3)c21 [Compound 196]	0.01	12.6	0.002
Cc1nc(Cn2ccc3nc(N)nc(NC(C)c4ccccn4)c32)cs1 (stereo not drawn) [Compound 197]	0.39	>25	0.04
CC(C)(O)CCNc1nc(N)nc2ccn(Cc3ccccn3)c12 [Compound 198]	8.76	>25	0.617
COCCn1ccc2nc(N)nc(NCc3cc(C(C)C)on3)c21 [Compound 199]	0.60	23.5	0.032
COCCn1ccc2nc(N)nc(NCc3cc(C4CC4)on3)c21 [Compound 200]	0.17	11.4	0.035
COCCn1ccc2nc(N)nc(NC(C)c3cccnc3)c21 (stereo not drawn) [Compound 201]	7.30	>25	0.978
COCCn1ccc2nc(N)nc(NCc3ccc(C)cn3)c21 [Compound 202]	1.61	>25	0.58
Cc1nc(CNc2nc(N)nc3ccn(Cc4ncccn4)c23)no1 [Compound 203]	1.04	>25	0.138
Cc1nc(CNc2nc(N)nc3ccn(Cc4cnccn4)c23)no1 [Compound 204]	1.78	>25	0.188
COc1ccccc1Cn1ccc2nc(N)nc(NCc3noc(C)n3)c21 [Compound 205]	<0.01	7.7	0.001
COC[C@H](C)Nc1nc(N)nc2ccn(Cc3csc(C)n3)c12 [Compound 206]	0.74	15	0.129
COCc1nc(CNc2nc(N)nc3ccn(Cc4ccccn4)c23)no1 [Compound 208]	5.14	>25	0.402
COc1cc(OC)nc(Cn2ccc3nc(N)nc(NCc4noc(C)n4)c32)n1 [Compound 209]	0.04	>25	0.008
COc1cc(OC)nc(Cn2ccc3nc(N)nc(NCc4ncc(C)o4)c32)n1 [Compound 210]	0.02	>25	0.003
COC[C@H](C)Nc1nc(N)nc2ccn(Cc3ccccn3)c12 [Compound 211]	6.94	22	0.47

— patent US11220504B2, “Pyrrolo[3,2-d] pyrimidine derivatives for the treatment of viral infections and other diseases” (JANSSEN SCIENCES IRELAND UNLIMITED COMPANY, priority 2012, dated 2022)
